# Values quoted from earlier work, collected in US7501533B2, “Process for preparing lysophosphatidylcholine” (Chem SpA, priority 2004, dated 2009).
# Tested on: rats
# Settings: from Sax and others, Dangerous Properties of Industrial Materials, edition VII
row,Structure (SMILES),LD50 (acute oral toxicity)
1,CCC[CH2][Sn](=[O])[CH2]CCC [dibutyltin oxide],LD50 = 44.9 mg/kg
2,CCCCCCC[CH2][Sn](=[O])[CH2]CCCCCCC [dioctyltin oxide],LD50 = 2500 mg/kg
